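Each compound was tested at five concentrations against cells in 96-well plates for 48 hours. TGI: concentration producing complete growth inhibition.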

Among the test systems are SF-295 CNS; 786-0 renal; SK-OV-3 ovarian; HOP-62 NSCLC; RXF 393 renal; A498 renal; UO-31 renal; EKVX NSCLC; NCI/ADR-RES ovarian; SK-MEL-2 melanoma; CAKI-1 renal; NCI-H226 lung; U251 CNS; SNB-19 CNS; SF-268 CNS; SNB-75 CNS; MDA-MB-435; SK-MEL-28 melanoma; HCT-15 colon; SF-539 CNS.
What all share (assay): NCI tumour cell line growth inhibition, 48 h

With `N/N=C(\c1nc2ccc([N+](=O)[O-])cc2[nH]c1=O)C(O)c1ccc(Cl)c(Cl)c1` (stereo not given), the TGI in the assay with SF-295 CNS, in the assay with 786-0 renal, in the assay on SK-OV-3 ovarian, with HOP-62 NSCLC, with RXF 393 renal and in the assay on A498 renal was more than 100 µM each time. Also, the TGI in the assay on UO-31 renal, in the assay on EKVX NSCLC, with NCI/ADR-RES ovarian, with SK-MEL-2 melanoma, with CAKI-1 renal and in the assay with NCI-H226 lung was more than 100 µM each time. In addition, the TGI in the assay on U251 CNS, with SNB-19 CNS, with SF-268 CNS, in the assay on SNB-75 CNS, in the assay with MDA-MB-435 and in the assay on SK-MEL-28 melanoma was more than 100 µM throughout. Moreover, the TGI in the assay on HCT-15 colon and in the assay on SF-539 CNS was more than 100 µM throughout.

As to `COc1ccc2nc3c([N+](=O)[O-])ccc4c3c(c2c1)NCCN4CCN(C)C`, the TGI in the assay on SF-295 CNS is 1.69 µM; in the assay with 786-0 renal it was 1.79 µM; in the assay on SK-OV-3 ovarian, 0.973 µM; in the assay on HOP-62 NSCLC, 3.44 µM; in the assay on RXF 393 renal, 2.38 µM; in the assay on A498 renal it was 3.12 µM. For the same compound, the TGI in the assay with UO-31 renal was determined as 3.42 µM; with EKVX NSCLC, 2.78 µM; in the assay on NCI/ADR-RES ovarian, 3.25 µM; in the assay on SK-MEL-2 melanoma, 2.92 µM; in the assay with CAKI-1 renal, 7.35 µM; in the assay on NCI-H226 lung, 7.13 µM. Also, the TGI with U251 CNS was determined as 2.54 µM; in the assay on SNB-19 CNS it was 2.27 µM; in the assay on SF-268 CNS it was 2.41 µM; in the assay with SNB-75 CNS it was 1.57 µM; in the assay with MDA-MB-435, 3.49 µM; in the assay on SK-MEL-28 melanoma it was 3.08 µM. Besides, the TGI came to 1.94 µM in the assay with HCT-15 colon and 1.71 µM in the assay with SF-539 CNS.

Regarding `C/C=C/C=C\C=C/C(O)C(C)C(CCC(C)C1OC(=O)C=CC1C)OP(=O)(O)O` (stereo not given), the TGI in the assay on SF-295 CNS came to 1.01 µM; with 786-0 renal, 1.51 µM; in the assay on SK-OV-3 ovarian, 1.68 µM; with HOP-62 NSCLC, 0.786 µM; in the assay with RXF 393 renal, 1.38 µM; in the assay with A498 renal, 0.404 µM. The TGI is 0.93 µM in the assay with UO-31 renal; 1.54 µM with EKVX NSCLC; 2.88 µM in the assay with NCI/ADR-RES ovarian; 2.32 µM in the assay on SK-MEL-2 melanoma; 0.314 µM with CAKI-1 renal; 2.02 µM with NCI-H226 lung. Besides, the TGI amounted to 2.5 µM with U251 CNS; 1.99 µM in the assay on SNB-19 CNS; 2.03 µM in the assay on SF-268 CNS; 2.85 µM with SNB-75 CNS; 0.773 µM in the assay with MDA-MB-435; 2.12 µM with SK-MEL-28 melanoma. In addition, the figures for the TGI in the assay with HCT-15 colon and in the assay with SF-539 CNS were 1.97 µM and 1.7 µM, respectively.

For the compound `CCC/C(Cl)=N/OC(=O)Nc1cc(C(F)(F)F)ccc1OC`, the TGI worked out at 32.3 µM with SF-295 CNS; 18.6 µM in the assay with 786-0 renal; 21.8 µM in the assay with SK-OV-3 ovarian; 32.2 µM in the assay with HOP-62 NSCLC; 18.3 µM in the assay with RXF 393 renal; 28.4 µM in the assay on A498 renal. Further, the TGI came out at 29.9 µM with UO-31 renal; 19.9 µM in the assay with EKVX NSCLC; 33.1 µM with NCI/ADR-RES ovarian; 31.5 µM with SK-MEL-2 melanoma; 9.01 µM in the assay with CAKI-1 renal; 30.8 µM in the assay with NCI-H226 lung. Besides, the TGI with U251 CNS stood at 31.6 µM; in the assay on SNB-19 CNS, 31.5 µM; in the assay on SF-268 CNS it was 29.8 µM; in the assay on SNB-75 CNS, 28.5 µM; in the assay on MDA-MB-435, 26.3 µM; in the assay on SK-MEL-28 melanoma it was 28.3 µM. For the same compound, the TGI in the assay with HCT-15 colon worked out at 16.6 µM; with SF-539 CNS, 28.6 µM.

For the compound `CCOC(=O)Cc1nnc2n(-c3ccccc3)c(=O)c3ccccc3n12`, the TGI in the assay on SF-295 CNS, in the assay on 786-0 renal, in the assay on SK-OV-3 ovarian, in the assay with HOP-62 NSCLC, with RXF 393 renal and with A498 renal was more than 100 µM each time. The TGI was more than 100 µM in the assay with UO-31 renal; more than 100 µM in the assay with EKVX NSCLC; more than 100 µM in the assay with NCI/ADR-RES ovarian; more than 100 µM with SK-MEL-2 melanoma; 43.3 µM with CAKI-1 renal; more than 100 µM with NCI-H226 lung. The TGI with U251 CNS, in the assay on SNB-19 CNS, in the assay on SF-268 CNS, in the assay on SNB-75 CNS, with MDA-MB-435 and in the assay with SK-MEL-28 melanoma was more than 100 µM throughout. The TGI in the assay on HCT-15 colon and with SF-539 CNS was more than 100 µM throughout.

In the case of `O=C(NCCCNCCN1C(=O)c2cccc3cc([N+](=O)[O-])cc(c23)C1=O)c1cc(-c2ccccc2)nc2ccccc12`, the TGI is 14.8 µM in the assay with SF-295 CNS; 9.04 µM in the assay with 786-0 renal; 21.6 µM in the assay on SK-OV-3 ovarian; 20.5 µM in the assay on HOP-62 NSCLC; 3.34 µM in the assay on RXF 393 renal; 8.87 µM in the assay with A498 renal. In addition, the TGI came to 7.46 µM in the assay with UO-31 renal; 22.8 µM with EKVX NSCLC; 17.3 µM in the assay on NCI/ADR-RES ovarian; 12.1 µM with SK-MEL-2 melanoma; 18.9 µM with CAKI-1 renal; 24.2 µM with NCI-H226 lung. The TGI in the assay on U251 CNS was 9.12 µM; in the assay on SNB-19 CNS it was 18.9 µM; in the assay with SF-268 CNS, 15.9 µM; in the assay on SNB-75 CNS it was 14.1 µM; with MDA-MB-435, 2.91 µM; in the assay on SK-MEL-28 melanoma it was 3.44 µM. The TGI came out at 17.2 µM with HCT-15 colon and 5.07 µM with SF-539 CNS.

Take `O=C1CSC(c2ccccc2)N1c1ccc(-n2c(-c3ccccc3)nc3ccccc3c2=O)cc1` (stereo not given): the TGI in the assay with SF-295 CNS, in the assay with 786-0 renal, with SK-OV-3 ovarian, with HOP-62 NSCLC, with RXF 393 renal and with A498 renal was more than 100 µM each time. Further, the TGI in the assay on UO-31 renal, in the assay with EKVX NSCLC, in the assay with NCI/ADR-RES ovarian, with SK-MEL-2 melanoma, in the assay with CAKI-1 renal and in the assay with NCI-H226 lung was more than 100 µM each time. For the same compound, the TGI with U251 CNS, in the assay with SNB-19 CNS, in the assay with SF-268 CNS, in the assay on SNB-75 CNS, in the assay on MDA-MB-435 and in the assay with SK-MEL-28 melanoma was more than 100 µM each time. The TGI in the assay on HCT-15 colon and in the assay on SF-539 CNS was more than 100 µM throughout.

For the compound `C=CCC1(Sc2ccccn2)Sc2ccc3ccccc3c2-c2c(ccc3ccccc23)S1`, the TGI in the assay on SF-295 CNS, in the assay on 786-0 renal, with SK-OV-3 ovarian, in the assay with HOP-62 NSCLC, in the assay on RXF 393 renal and in the assay with A498 renal was more than 100 µM each time. In addition, the TGI with UO-31 renal, with EKVX NSCLC, in the assay on NCI/ADR-RES ovarian, with SK-MEL-2 melanoma, with CAKI-1 renal and with NCI-H226 lung was more than 100 µM each time. The TGI in the assay on U251 CNS, in the assay on SNB-19 CNS, in the assay with SF-268 CNS, with SNB-75 CNS, with MDA-MB-435 and in the assay with SK-MEL-28 melanoma was more than 100 µM in each case. The TGI in the assay on HCT-15 colon and in the assay on SF-539 CNS was more than 100 µM in each case.

As to `O=C1/C(=C/c2ccc(O)cc2)CCc2ccc([N+](=O)[O-])cc21`, the TGI was more than 100 µM with SF-295 CNS; more than 100 µM in the assay on 786-0 renal; more than 100 µM with SK-OV-3 ovarian; more than 100 µM with HOP-62 NSCLC; more than 92.3 µM with RXF 393 renal; more than 100 µM with A498 renal. The TGI was more than 81.6 µM in the assay on UO-31 renal; more than 100 µM in the assay with EKVX NSCLC; more than 100 µM in the assay with NCI/ADR-RES ovarian; more than 100 µM in the assay on SK-MEL-2 melanoma; more than 100 µM in the assay with CAKI-1 renal; more than 92.7 µM in the assay with NCI-H226 lung. The TGI in the assay with U251 CNS was more than 100 µM; with SNB-19 CNS, 98.7 µM; in the assay with SF-268 CNS, more than 100 µM; in the assay on SNB-75 CNS it was more than 100 µM; in the assay with MDA-MB-435, more than 100 µM; in the assay on SK-MEL-28 melanoma it was more than 100 µM. The TGI in the assay on HCT-15 colon and with SF-539 CNS was more than 100 µM in each case.

Values taken from PubChem BioAssay (NCI).
